In ChEMBL document CHEMBL1139642, “Design, synthesis, and evaluation of dioxane-based antiviral agents targeted against the Sindbis virus capsid protein” (Bioorg Med Chem Lett, 2005):

Legend:
[1] = Cytotoxic concentration for 50% growth inhibition of uninfected BHK cells; format: cell-based, Mesocricetus auratus; settings: hamster
Sindbis virus = test: Effective concentration resulting in a 50% reduction in virus production in BHK cells; format: functional, organism-based

Row | SMILES | CC50 [1] | EC50 (Sindbis virus)
1 | c1ccc(CCCC[C@@H]2COCCO2)cc1 | 600 µM | > 100 µM
2 | O=C(C[C@@H]1COCCO1)C[C@@H]1COCCO1 | > 1000 µM | > 100 µM
3 | C(C[C@@H]1COCCO1)C[C@@H]1COCCO1 | > 1000 µM | 40 µM
4 | OC[C@@H]1COCCO1 | > 1000 µM | 1 µM
